{"source": "ChEMBL document CHEMBL1201862", "about": "“PubChem BioAssay data set” (2004)", "key": {"[1]": {"molecular_target": "Steroidogenic factor 1 (Homo sapiens, UniProt Q13285)", "sequence (Q13285 whole entry)": "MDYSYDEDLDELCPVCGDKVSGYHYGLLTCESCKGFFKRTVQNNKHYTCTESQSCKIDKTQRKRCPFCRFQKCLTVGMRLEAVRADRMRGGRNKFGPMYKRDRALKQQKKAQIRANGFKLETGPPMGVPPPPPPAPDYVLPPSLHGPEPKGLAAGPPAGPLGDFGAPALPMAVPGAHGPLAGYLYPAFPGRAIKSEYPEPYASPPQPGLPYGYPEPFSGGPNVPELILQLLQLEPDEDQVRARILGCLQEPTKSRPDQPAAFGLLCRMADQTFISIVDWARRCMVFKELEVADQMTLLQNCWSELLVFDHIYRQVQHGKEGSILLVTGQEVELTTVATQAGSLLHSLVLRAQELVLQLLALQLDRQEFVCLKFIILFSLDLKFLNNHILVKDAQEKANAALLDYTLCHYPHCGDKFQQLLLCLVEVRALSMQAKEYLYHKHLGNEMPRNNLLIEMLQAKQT", "assay": "Counterscreen for inverse agonists of the liver receptor homolog-1 (LRH-1; NR5A2): Luminescence-based cell-based high throughput dose response assay to identify inverse agonists of the Steroidogenic Factor 1 Nuclear Receptor (SF1; NR5A1).", "type": "functional"}, "[2]": {"assay": "cells", "type": "functional, cell-based"}, "[3]": {"molecular_target": "Nuclear receptor subfamily 5 group A member 2 (Homo sapiens, UniProt O00482)", "sequence (O00482 whole entry)": "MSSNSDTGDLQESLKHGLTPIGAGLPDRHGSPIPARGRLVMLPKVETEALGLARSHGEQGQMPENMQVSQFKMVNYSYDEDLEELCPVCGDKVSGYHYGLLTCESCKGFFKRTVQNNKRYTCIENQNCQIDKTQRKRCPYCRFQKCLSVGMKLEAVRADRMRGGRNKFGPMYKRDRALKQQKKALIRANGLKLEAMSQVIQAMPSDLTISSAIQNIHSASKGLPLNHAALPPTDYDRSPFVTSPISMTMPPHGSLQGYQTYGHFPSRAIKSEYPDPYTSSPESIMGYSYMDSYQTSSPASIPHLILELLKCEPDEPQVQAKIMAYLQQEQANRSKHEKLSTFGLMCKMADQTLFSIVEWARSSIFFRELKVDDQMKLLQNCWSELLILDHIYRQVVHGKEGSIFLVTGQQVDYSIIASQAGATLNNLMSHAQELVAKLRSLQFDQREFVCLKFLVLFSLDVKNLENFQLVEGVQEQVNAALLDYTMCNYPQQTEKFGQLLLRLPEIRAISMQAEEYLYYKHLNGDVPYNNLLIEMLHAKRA", "type": "functional, cell-based"}, "[4]": {"assay": "nonselective StAR promoter luciferase inhibitors – cell-based, luminescence, luciferase reporter, counter-screen for LRH-1 inverse agonist project, dose response (AID 651969)", "type": "functional"}, "[5]": {"assay": "cells", "type": "functional, cell-based", "remark": "listed apart in the source"}, "[6]": {"molecular_target": "T1, Small ubiquitin-related modifier 2 (Homo sapiens, UniProt P61956)", "T1 sequence (P61956 whole entry)": "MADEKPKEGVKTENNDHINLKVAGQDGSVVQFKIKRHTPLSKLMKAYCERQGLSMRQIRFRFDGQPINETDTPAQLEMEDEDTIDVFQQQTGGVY", "assay": "disruption of SUMO2 interaction with SIM peptide – biochemical, fluorescence polarization, uHTS hits, selectivity assay for SUMO1 interaction inhibitor project, dose response (AID 624385)", "type": "functional", "conditions": "read-out: IC50_Mean"}, "[7]": {"molecular_target": "T2, Carboxy-terminal domain RNA polymerase II polypeptide A small phosphatase 1 (Homo sapiens, UniProt Q9GZU7)", "T2 sequence (Q9GZU7 whole entry)": "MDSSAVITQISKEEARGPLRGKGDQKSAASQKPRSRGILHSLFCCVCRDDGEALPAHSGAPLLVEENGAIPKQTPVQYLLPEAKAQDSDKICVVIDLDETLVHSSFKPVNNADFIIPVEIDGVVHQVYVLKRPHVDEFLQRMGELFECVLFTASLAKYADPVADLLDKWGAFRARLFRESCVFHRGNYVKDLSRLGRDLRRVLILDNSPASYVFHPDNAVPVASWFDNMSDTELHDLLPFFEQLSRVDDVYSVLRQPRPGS", "assay": "CTDSP1 inhibitors, concentration-response, biochemical, absorbance readout, ultra-high-throughput screen actives (AID 540297)", "type": "functional"}, "[8]": {"molecular_target": "T3, Probable nicotinate-nucleotide adenylyltransferase (Staphylococcus aureus (strain N315), UniProt P65502)", "T3 sequence (P65502 whole entry)": "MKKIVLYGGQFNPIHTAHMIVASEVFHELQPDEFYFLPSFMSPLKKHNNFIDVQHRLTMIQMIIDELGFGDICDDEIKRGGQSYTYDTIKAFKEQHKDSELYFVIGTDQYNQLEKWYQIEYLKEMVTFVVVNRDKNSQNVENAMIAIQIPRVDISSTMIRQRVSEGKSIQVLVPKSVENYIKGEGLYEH", "type": "functional, Staphylococcus aureus subsp. aureus N315"}, "[9]": {"molecular_target": "T4, Small ubiquitin-related modifier 1 (Homo sapiens, UniProt P63165)", "T4 sequence (P63165 whole entry)": "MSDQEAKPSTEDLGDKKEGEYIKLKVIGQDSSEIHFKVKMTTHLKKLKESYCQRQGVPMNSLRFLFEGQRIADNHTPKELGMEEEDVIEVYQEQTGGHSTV", "assay": "SUMO1 protein-protein binding blockers, potency – biochemical, FRET, dose response (AID 624383)", "type": "functional", "conditions": "read-out: IC50_Mean"}, "[10]": {"molecular_target": "T3, Probable nicotinate-nucleotide adenylyltransferase", "type": "functional, Staphylococcus aureus subsp. aureus N315", "conditions": "read-out: IC50_Mean"}, "[11]": {"molecular_target": "T1, Small ubiquitin-related modifier 2", "assay": "SUMO2 binding disruption by SUMO1 hits – biochemical, FRET, human SUMO2, uHTS hits, selectivity assay for SUMO1 interaction inhibitor project, dose response (AID 624384)", "type": "functional", "conditions": "read-out: IC50_Mean"}, "[12]": {"molecular_target": "T4, Small ubiquitin-related modifier 1", "assay": "SUMO1 protein interaction blockers, potency – biochemical, fluorescence polarization, uHTS hits, dose response (AID 624382)", "type": "functional", "conditions": "read-out: IC50_Mean"}, "[13]": {"molecular_target": "T5, Protein RecA (Mycobacterium tuberculosis, UniProt P9WHJ3)", "T5 sequence (P9WHJ3 whole entry)": "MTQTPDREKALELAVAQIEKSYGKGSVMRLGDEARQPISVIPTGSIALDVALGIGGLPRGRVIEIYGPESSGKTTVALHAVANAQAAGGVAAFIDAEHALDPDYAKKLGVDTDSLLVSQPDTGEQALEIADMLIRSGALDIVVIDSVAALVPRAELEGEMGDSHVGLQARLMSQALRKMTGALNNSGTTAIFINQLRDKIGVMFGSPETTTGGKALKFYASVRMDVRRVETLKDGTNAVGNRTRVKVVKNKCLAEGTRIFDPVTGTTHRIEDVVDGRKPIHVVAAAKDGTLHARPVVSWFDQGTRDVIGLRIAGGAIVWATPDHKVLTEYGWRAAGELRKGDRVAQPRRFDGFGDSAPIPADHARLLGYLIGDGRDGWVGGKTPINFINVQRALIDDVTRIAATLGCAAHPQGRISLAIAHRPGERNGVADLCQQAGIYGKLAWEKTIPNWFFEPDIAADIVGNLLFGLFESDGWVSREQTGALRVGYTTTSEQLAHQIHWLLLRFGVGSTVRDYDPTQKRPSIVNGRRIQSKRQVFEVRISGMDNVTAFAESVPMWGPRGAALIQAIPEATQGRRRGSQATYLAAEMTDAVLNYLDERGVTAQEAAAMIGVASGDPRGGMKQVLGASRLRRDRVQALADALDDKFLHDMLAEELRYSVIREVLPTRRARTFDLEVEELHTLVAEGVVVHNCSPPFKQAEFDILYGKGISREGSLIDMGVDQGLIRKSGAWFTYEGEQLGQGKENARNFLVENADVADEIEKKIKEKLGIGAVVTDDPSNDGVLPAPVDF", "assay": "Fluorescence Cell-Free Homogeneous Dose Retest to Identify Inhibitors of RecA-Intein Splicing Activity. [Related pubchem assays (depositor defined):AID2097, AID2223, AID489010, AID492950]", "type": "functional"}, "[14]": {"molecular_target": "T6, Heat shock factor protein 1 (Mus musculus, UniProt P38532)", "T6 sequence (P38532 whole entry)": "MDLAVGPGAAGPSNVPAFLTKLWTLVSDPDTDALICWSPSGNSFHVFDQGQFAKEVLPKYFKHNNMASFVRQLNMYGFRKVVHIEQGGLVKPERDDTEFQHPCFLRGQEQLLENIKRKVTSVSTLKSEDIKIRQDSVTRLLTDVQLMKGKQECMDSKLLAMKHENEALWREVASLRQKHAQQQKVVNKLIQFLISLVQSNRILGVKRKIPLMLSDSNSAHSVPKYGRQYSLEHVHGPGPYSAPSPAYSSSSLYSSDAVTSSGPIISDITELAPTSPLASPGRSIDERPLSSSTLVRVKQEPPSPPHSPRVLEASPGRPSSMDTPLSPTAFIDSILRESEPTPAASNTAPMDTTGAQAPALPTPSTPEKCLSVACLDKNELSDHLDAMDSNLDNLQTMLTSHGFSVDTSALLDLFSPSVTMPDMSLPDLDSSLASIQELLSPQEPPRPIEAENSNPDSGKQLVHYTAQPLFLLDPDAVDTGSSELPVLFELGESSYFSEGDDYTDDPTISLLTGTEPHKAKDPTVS", "assay": "enhancement of HSF1-driven luciferase signal – cell-based, NIH3T3, luminescence, dose retest, confirmation (AID 435004);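 further: stress induced by proteasome inhibitor MG132 added 30 min after compound; actives raise luminescence as potentiators of the MG132 stress response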", "type": "functional"}, "[15]": {"assay": "Counterscreen for activators of the function of SWI/SNF related, matrix associated, actin dependent regulator of chromatin, subfamily a, member 2 (SMARCA2, BRM): Luminescence-based cell-based high throughput dose response assay to identify non-selective compounds using the VP16 reporter assay.", "type": "functional"}, "[16]": {"assay": "cAMP pathway inhibition in counterscreen cell line – TR-FRET cAMP detection, counter-screen for MC4R biased antagonist project, dose response (AID 602305);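 further: U2OS cells stimulated with forskolin near its EC80 as the cAMP inducer; potency is for inhibition of forskolin-stimulated cAMP signaling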", "type": "functional, cell-based"}, "[17]": {"molecular_target": "T7, Polyadenylate-binding protein 1 (Homo sapiens, UniProt P11940)", "T7 sequence (P11940 whole entry)": "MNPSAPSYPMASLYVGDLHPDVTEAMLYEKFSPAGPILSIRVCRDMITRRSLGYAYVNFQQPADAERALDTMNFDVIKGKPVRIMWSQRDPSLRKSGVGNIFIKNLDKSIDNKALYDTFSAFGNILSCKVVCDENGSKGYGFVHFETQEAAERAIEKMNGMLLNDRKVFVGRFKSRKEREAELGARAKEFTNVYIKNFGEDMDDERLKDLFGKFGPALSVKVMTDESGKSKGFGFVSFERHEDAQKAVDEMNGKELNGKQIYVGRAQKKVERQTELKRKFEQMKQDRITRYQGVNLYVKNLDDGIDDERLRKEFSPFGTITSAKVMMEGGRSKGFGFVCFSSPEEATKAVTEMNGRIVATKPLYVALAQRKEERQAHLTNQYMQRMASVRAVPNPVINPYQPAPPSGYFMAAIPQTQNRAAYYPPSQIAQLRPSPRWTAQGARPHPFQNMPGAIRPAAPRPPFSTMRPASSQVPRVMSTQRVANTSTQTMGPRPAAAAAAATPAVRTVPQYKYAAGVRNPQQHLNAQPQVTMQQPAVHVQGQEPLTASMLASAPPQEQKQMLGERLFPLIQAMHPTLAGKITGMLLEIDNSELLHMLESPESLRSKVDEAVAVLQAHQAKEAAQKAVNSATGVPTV", "assay": "MLLE binding blockers, Cy5 peptide tracer – biochemical, fluorescence polarization, Cy5-PAM2 peptide, secondary, miRNA deadenylation inhibitor project, dose response (AID 602260)", "type": "functional", "conditions": "read-out: IC50_Mean"}, "[18]": {"molecular_target": "SWI/SNF-related matrix-associated actin-dependent regulator of chromatin subfamily A member 2 (Homo sapiens, UniProt P51531)", "sequence (P51531 whole entry)": "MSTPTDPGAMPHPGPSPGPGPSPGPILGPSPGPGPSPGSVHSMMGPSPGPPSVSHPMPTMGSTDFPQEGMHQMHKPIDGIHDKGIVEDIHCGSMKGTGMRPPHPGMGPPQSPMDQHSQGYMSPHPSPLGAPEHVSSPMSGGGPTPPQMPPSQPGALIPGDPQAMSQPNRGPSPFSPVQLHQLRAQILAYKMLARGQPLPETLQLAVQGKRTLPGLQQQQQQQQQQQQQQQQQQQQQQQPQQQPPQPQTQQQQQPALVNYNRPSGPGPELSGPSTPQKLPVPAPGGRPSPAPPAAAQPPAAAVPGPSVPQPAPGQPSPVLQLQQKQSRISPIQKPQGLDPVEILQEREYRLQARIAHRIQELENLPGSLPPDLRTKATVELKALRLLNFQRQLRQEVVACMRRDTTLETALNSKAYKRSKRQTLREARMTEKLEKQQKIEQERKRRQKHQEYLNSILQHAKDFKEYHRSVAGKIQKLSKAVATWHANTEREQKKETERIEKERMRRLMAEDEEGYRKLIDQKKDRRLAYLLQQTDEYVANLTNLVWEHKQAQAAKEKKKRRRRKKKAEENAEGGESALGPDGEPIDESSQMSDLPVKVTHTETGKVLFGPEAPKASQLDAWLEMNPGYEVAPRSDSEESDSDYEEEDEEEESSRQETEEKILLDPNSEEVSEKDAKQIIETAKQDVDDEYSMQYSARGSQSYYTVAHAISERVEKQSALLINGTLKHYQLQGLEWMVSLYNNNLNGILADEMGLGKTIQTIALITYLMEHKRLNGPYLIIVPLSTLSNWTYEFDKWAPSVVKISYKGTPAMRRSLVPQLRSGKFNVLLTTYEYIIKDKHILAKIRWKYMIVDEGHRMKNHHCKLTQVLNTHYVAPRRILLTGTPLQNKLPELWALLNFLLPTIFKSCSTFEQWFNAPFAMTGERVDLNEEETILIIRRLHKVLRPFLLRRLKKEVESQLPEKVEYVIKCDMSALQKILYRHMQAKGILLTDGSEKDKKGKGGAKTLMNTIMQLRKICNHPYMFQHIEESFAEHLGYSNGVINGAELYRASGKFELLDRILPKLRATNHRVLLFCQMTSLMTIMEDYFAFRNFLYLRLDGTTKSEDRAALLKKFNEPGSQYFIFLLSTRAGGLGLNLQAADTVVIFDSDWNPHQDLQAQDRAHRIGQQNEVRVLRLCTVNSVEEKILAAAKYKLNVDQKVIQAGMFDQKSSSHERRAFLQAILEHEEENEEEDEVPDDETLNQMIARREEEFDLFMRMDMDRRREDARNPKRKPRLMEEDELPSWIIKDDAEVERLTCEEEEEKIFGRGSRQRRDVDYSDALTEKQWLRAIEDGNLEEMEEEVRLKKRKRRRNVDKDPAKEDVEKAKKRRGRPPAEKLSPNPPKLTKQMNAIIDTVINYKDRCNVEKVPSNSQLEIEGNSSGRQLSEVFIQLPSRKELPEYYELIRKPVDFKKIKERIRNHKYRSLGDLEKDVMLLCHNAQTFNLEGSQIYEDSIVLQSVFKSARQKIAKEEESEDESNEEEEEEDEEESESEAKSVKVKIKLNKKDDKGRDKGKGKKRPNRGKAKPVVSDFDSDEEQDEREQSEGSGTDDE", "assay": "Luminescence-based cell-based high throughput dose response assay to identify activators of the function of SWI/SNF related, matrix associated, actin dependent regulator of chromatin, subfamily a, member 2 (SMARCA2, BRM).", "type": "functional"}, "[19]": {"molecular_target": "T7, Polyadenylate-binding protein 1", "assay": "MLLE domain peptide-binding blockers, IC50 – biochemical, fluorescence polarization, FITC-PAM2 peptide, dose response (AID 602259)", "type": "functional", "conditions": "read-out: IC50_Mean"}, "[20]": {"molecular_target": "Melanocortin receptor 4 (Homo sapiens, UniProt P32245)", "sequence (P32245 whole entry)": "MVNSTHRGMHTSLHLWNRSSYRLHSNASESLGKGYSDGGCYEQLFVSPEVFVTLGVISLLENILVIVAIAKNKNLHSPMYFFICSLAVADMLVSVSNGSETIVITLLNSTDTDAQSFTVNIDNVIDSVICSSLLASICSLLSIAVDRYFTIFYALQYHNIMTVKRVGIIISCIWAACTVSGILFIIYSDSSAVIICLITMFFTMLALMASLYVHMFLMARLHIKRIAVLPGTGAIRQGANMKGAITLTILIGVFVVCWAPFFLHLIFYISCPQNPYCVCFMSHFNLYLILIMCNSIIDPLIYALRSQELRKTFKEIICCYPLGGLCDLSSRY", "assay": "inhibitors of MC4R cAMP signaling – cell-based, TR-FRET, biased antagonists, dose response (AID 602298);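 further: antagonist potency against agonist-stimulated cAMP production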", "type": "functional"}, "[21]": {"molecular_target": "T8, Replicative DNA helicase DnaB (Mycobacterium tuberculosis, UniProt P9WMR3)", "T8 sequence (P9WMR3 whole entry)": "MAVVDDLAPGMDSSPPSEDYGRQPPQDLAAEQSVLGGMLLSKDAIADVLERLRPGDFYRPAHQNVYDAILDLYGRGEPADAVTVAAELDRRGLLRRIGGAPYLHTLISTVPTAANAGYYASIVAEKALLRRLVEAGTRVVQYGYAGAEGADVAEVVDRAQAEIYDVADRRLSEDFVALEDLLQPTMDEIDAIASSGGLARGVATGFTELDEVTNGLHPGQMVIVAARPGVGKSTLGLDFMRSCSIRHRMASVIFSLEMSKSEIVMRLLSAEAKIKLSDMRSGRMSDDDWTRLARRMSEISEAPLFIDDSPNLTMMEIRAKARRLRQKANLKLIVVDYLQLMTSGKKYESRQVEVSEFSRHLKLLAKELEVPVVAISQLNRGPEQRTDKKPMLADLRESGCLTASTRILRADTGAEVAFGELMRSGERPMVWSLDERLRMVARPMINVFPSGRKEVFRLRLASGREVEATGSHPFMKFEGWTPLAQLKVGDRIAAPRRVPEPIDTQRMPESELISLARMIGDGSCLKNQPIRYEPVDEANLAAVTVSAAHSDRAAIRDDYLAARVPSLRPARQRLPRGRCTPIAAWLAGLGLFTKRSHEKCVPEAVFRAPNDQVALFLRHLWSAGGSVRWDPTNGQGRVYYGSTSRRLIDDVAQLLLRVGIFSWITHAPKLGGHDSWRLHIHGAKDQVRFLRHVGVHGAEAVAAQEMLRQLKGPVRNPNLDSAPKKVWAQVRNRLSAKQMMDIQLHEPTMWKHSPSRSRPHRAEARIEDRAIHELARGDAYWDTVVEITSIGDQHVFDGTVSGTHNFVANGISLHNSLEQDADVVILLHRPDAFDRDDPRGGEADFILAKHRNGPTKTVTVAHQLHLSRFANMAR", "assay": "DnaB intein splicing inhibitors, dose response, biochemical, cell-free fluorescence (AID 449749)", "type": "functional"}, "[22]": {"assay": "cells", "type": "functional, cell-based", "remark": "listed apart in the source"}, "[23]": {"molecular_target": "T9, Nuclear receptor subfamily 0 group B member 1 (Homo sapiens, UniProt P51843)", "T9 sequence (P51843 whole entry)": "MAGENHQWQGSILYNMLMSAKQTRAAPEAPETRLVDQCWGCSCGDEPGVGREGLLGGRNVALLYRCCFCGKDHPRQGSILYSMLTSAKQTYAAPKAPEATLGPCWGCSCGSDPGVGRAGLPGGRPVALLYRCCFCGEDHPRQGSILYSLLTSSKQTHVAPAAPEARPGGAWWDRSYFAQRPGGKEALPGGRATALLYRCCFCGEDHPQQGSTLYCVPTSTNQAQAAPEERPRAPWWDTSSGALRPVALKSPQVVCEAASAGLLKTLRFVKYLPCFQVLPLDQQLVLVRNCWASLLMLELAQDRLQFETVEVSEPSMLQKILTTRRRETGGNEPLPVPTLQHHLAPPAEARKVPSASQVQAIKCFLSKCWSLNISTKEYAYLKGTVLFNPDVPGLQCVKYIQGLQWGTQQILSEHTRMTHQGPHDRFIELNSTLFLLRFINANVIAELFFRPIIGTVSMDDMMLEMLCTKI", "type": "functional, cell-based"}}, "note": "Active and inactive are the calls of the source."}
{"compound": "COc1ccc(NC(=O)CSc2[nH]cnc3nncc2-3)cc1", "values": [{"measurement": "IC50", "setting": "[1]", "value": "1.73 µM (active)"}, {"measurement": "EC50", "setting": "[2]", "value": "> 350 µM (not active)"}, {"measurement": "IC50", "setting": "[3]", "value": "1.37 µM (active)"}, {"measurement": "IC50", "setting": "[4]", "value": "35.9 µM (inactive)"}, {"measurement": "EC50", "setting": "[5]", "value": "> 350 µM (not active)"}]}
{"compound": "O=C1N=c2ccccc2=C1Nc1ccc(S(=O)(=O)Nc2nccs2)cc1", "values": [{"measurement": "IC50", "setting": "[6]", "value": "9.54 µM (active)"}, {"measurement": "IC50", "setting": "[7]", "value": "4.2 µM (active)"}, {"measurement": "IC50", "setting": "[8]", "value": "5.32 µM (active)"}, {"measurement": "IC50", "setting": "[9]", "value": "51 µM (inactive)"}, {"measurement": "IC50", "setting": "[10]", "value": "15.5 µM (active)"}, {"measurement": "IC50", "setting": "[11]", "value": "46.1 µM (inactive)"}, {"measurement": "IC50", "setting": "[12]", "value": "11 µM (active)"}]}
{"compound": "CC(=O)Nc1cccc(NC(=O)CSc2ncc(C(=O)Nc3ccccc3)c(=O)n2C)c1", "values": [{"measurement": "EC50", "setting": "[13]", "value": "1.61 µM (active)"}, {"measurement": "EC50", "setting": "[14]", "value": "12.8 µM (active)"}, {"measurement": "EC50", "setting": "[15]", "value": "> 91.1 µM (inactive)"}, {"measurement": "IC50", "setting": "[16]", "value": "> 64.6 µM (inactive)"}, {"measurement": "IC50", "setting": "[17]", "value": "> 66 µM (inactive)"}, {"measurement": "EC50", "setting": "[18]", "value": "> 91.1 µM (inactive)"}, {"measurement": "IC50", "setting": "[19]", "value": "> 66 µM (inactive)"}, {"measurement": "IC50", "setting": "[20]", "value": "> 64.6 µM (inactive)"}, {"measurement": "AC50", "setting": "[21]", "value": "6.51 µM (active)"}]}
{"compound": "O=C(CCN1C(=O)/C(=C\\C=C\\c2ccccc2)SC1=S)Nc1cccc(C(=O)O)c1", "values": [{"measurement": "IC50", "setting": "[7]", "value": "4.8 µM (active)"}, {"measurement": "IC50", "setting": "[22]", "value": "> 67.5 µM (inactive)"}, {"measurement": "IC50", "setting": "[23]", "value": "> 67.5 µM (inactive)"}]}
